Among the data in ChEMBL document CHEMBL4190168 (Medchemcomm, 2016) are solubility, inhibition and Activity values, retold here.

Active and inactive are the calls of the source. No cut-off for these calls is given here.

Data set [1] can be described thus: Solubility of the compound in water. It counts as physicochemical.
The test system of data set [2] is EA.hy 926. The experiment in a line: Antiangiogenic activity in human EAhy926 cells assessed as inhibition of VEGF-induced capillary tube formation after 24 hrs by matrigel based phase contrast microscopic analysis. It counts as functional, cell-based.
Data set [3] concerns Chorioallantoic membrane. The experiment in a line: Antiangiogenic activity in chicken fertilized egg chorioallantoic membrane at 30 uM after 48 hrs by microscopic analysis. The class given is functional, tissue-based. The following applies: Gallus gallus.
The test system of data set [4] is EA.hy 926. Description: Anti-migratory activity against human EAhy926 cells assessed as inhibition of VEGF-induced cell migration towards wound area after 24 hrs by phase contrast microscopic analysis. The class given is functional, cell-based.

`COc1ccc(-c2nc(CNCCCCCCNCc3cc4c5ccccc5n(Cc5ccccc5)c4c(-c4ccc(OC)cc4)n3)cc3c4ccccc4n(Cc4ccccc4)c23)cc1.Cl` came in with a solubility in data set [1] above 10000 µg/mL.

On to `COc1ccc(-c2nc(CNCCCCCNCc3cc4c5ccccc5n(C)c4c(-c4ccc(OC)cc4)n3)cc3c4ccccc4n(C)c23)cc1`, for which the inhibition entry in data set [2] and in data set [4] was “Dose-dependent effect” each time. Also, the outcome in data set [3] was Active.

As to `CCCCn1c2ccccc2c2cc(CNCCCCCNCc3cc4c5ccccc5n(CCCC)c4c(C(C)C)n3)nc(C(C)C)c21.Cl`, the solubility in data set [1] was above 10000 µg/mL.

In turn, `COc1ccc(-c2nc(CNCCCCNCc3cc4c([nH]c5ccccc54)c(-c4ccc(OC)cc4)n3)cc3c2[nH]c2ccccc23)cc1.Cl` displayed a solubility in data set [1] above 10000 µg/mL.

In turn, `Cc1nc(CNCCCCNCc2cc3c4ccccc4n(C(C)C)c3c(C)n2)cc2c3ccccc3n(C(C)C)c12.Cl` returned a solubility in data set [1] above 10000 µg/mL.

Regarding `Cl.Cn1c2ccccc2c2cc(CNCCCCNCc3cc4c5ccccc5n(C)c4c(-c4ccccc4)n3)nc(-c3ccccc3)c21`, the solubility in data set [1] is above 10000 µg/mL.

In turn, `Cc1nc(CNCCCCCCNCc2cc3c4ccccc4n(C)c3c(C)n2)cc2c3ccccc3n(C)c12.Cl` yielded a solubility in data set [1] above 10000 µg/mL.

In the case of `Cc1nc(CNCCCNCc2cc3c4ccccc4n(CC(C)C)c3c(C)n2)cc2c3ccccc3n(CC(C)C)c12.Cl`, the solubility in data set [1] was above 10000 µg/mL.

On to `CCCCCCn1c2ccccc2c2cc(CNCCCCCCNCc3cc4c5ccccc5n(CCCCCC)c4c(-c4ccc(OC)cc4)n3)nc(-c3ccc(OC)cc3)c21.Cl`, for which, in data set [1], the solubility is above 10000 µg/mL.

With `COc1ccc(-c2nc(CNCCCCNCc3cc4c5ccccc5n(C)c4c(-c4ccc(OC)cc4)n3)cc3c4ccccc4n(C)c23)cc1.Cl`, in data set [1], the solubility was above 10000 µg/mL.

`CCCCn1c2ccccc2c2cc(CNCCCCNCc3cc4c5ccccc5n(CCCC)c4c(-c4ccc(Cl)cc4)n3)nc(-c3ccc(Cl)cc3)c21.Cl`: the solubility in data set [1] is above 10000 µg/mL.

In turn, `CC(C)c1nc(CNCCCCCNCc2cc3c([nH]c4ccccc43)c(C(C)C)n2)cc2c1[nH]c1ccccc12.Cl` returned a solubility in data set [1] above 10000 µg/mL.

Regarding `Cl.Clc1ccc(-c2nc(CNCCCCCCNCc3cc4c5ccccc5n(Cc5ccccc5)c4c(-c4ccc(Cl)cc4)n3)cc3c4ccccc4n(Cc4ccccc4)c23)cc1`, the solubility in data set [1] is above 10000 µg/mL.
